Legend:
[1] = tested on: antibody (IgG) in urine of nephritis patients; test: Screening of antigenic site on alpha 5 chain NC1: ELISA with synthetic peptides as coating antigen; type: binding, human
Method: A preliminary test was carried out, using the ELISA method, in which NC1 as the antigen for coating was replaced with synthetic peptides. The measurement conditions were: antigen concentration: 10 μg/mL (10 mM PBS), 100 μL/well; blocking agent: Block Ace (manufactured by Dainippon Pharmaceutical Co., Ltd.) diluted to 25%, 250 μL/well; urine: human 20- to 100-fold dilution; second antibody (enzyme-labeled anti-human IgG antibody): ×800; and substrate solution: TMB (+) (manufactured by DAKO Corp). The specimen was diluted to 20- to 100-fold, unlike the original fourfold dilution of NC1 as the antigen. […] Accordingly, a main test was carried out using NC1 of the alpha 5 chain. Note that 301 contained the amino acid sequence about 5 to 18 from the N-terminus on the alpha 3 chain corresponding to Goodpasture syndrome specified by computer software. Furthermore, it was possible to check alpha chains other than the alpha 5 chain, such as 301. […] Therefore, it was possible to use both antigens as nephritis detection reagents.
A test was carried out using the ELISA method, in which NC1 as the antigen for coating was replaced with synthetic peptides, under the same conditions as those described above.
The peptides of the alpha 5 chain were prepared as described below. Fifteen synthetic peptides were prepared from the whole region of the alpha 5 chain NC1, in which a first unit of 20 amino acid residues was selected from the N-terminus, and subsequent units, each containing 20 amino acid residues, were selected with 5 amino acid residues overlapping each other (hereinafter referred to as yp01 to yp15 (H4NA5-1 to 5-15 in FIG. 6), yp15 containing more than 20 amino acid residues). […] Thus, the five peptides were antigenic sites common to the specimen A, the specimen B, and IgA nephropathy which were derived from different diseases. As described above, bovine glomerulus-derived NC1 and triple helix have substantially the same reactivity with nephritis urine specimens, and both are considered to be common antigens to nephritis. Thus, the triple helix (7S and/or the central helical domain) of the alpha 5 chain and peptides thereof can be considered as immunoreactive peptide candidates. The whole alpha 5 chain may be used as an antigen. However, in such a case, a time-consuming process is required.

[2] = tested on: rabbits (female); test: Nephritis model using immunoreactive peptide as inducer, rabbits, urinary protein; type: in vivo, rabbit; details: peptide 0.3 mg/mL with FCA intradermally once in two weeks, four times
Method: The selected peptides can be used as an inducer of nephritis independently and/or in combination with each other. Although yp08 (SEQ ID NO: 8) and yp12 (SEQ ID NO: 6) were used as peptides and rabbits and guinea pigs were used as animals, the peptides, animals, and administration methods are not limited thereto.
(§1) Peptides 0.3 mg/mL (0.15 mg only for initial administration) together with the same amount of FCA were intradermally administered to rabbits (female) once in two weeks, four times in total.

[3] = tested on: rabbits (female); test: ELISA antibody level in serum of peptide-immunised rabbits (peptide-coated microplate); type: in vivo; details: rabbit serum
Method: as §1
Furthermore, in the ELISA method in which the microplate was coated with the peptide yp12 (SEQ ID NO: 6) (10 μg/mL), in 7 weeks after the initial administration, at a dilution of 32,000 fold, the antibody level in serum reached 3.00, which is in the vicinity of the upper limit of measurement of the absorptiometer.

[4] = tested on: guinea pigs (female); test: ELISA antibody level in serum of peptide-immunised guinea pigs (yp12-coated microplate); type: in vivo; details: guinea pig serum, dilution 8,000 fold, 7 weeks after initial administration
Method: Peptides 0.1 mg/mL together with the same amount of FCA were intradermally administered to guinea pigs (female) once in two weeks, four times in total.
Furthermore, in the ELISA method in which the microplate was coated with the peptide yp12 (SEQ ID NO: 6) (10 μg/mL), in 7 weeks after the initial administration, at a dilution of 8,000 fold, the antibody level in guinea pig serum reached 3.00, which is in the vicinity of the upper limit of measurement of the absorptiometer. Furthermore, intra-abdominal administration to rats or mice of these anti-immunoreactive peptide antibodies (antiserum) enabled production of models of nephritis which was weak, close to that of human, and slowly progressive, unlike the administration of conventional anti-NC1 antibodies (antiserum).

[5] = specimen A (chronic nephritis: No. 38)
[6] = specimen B (diabetic nephritis: No. 42)

Question: With “GRGTC NYYAN SYSFW LATVD (GRGTCNYYANSYSFWLATVD; peptide with homology to Type IV collagen) [yp13, synthetic 20-residue peptide from human type IV collagen alpha 5 chain NC1]” as the substance, how does the “reaction with urine specimen” value ([1]; IgA nephropathy) read?
Answer: The value was “strongly reacted”.

Question: And the “reaction with urine specimen” value [1, 5]?
Answer: Its value is “strongly reacted”.

Question: What about the “reaction with urine specimen” value [1, 6] of the same substance?
Answer: Its value is “strongly reacted”.

Question: What does the source list for “GWDSL WIGYS FMMHT SAGAE (GWDSLWIGYSFMMHTSAGAE; peptide with homology to Type IV collagen) [yp10, synthetic 20-residue peptide from human type IV collagen alpha 5 chain NC1]”?
Answer: reaction with urine specimen ([1]; IgA nephropathy): strongly reacted; reaction with urine specimen [1, 5]: strongly reacted; reaction with urine specimen [1, 6]: strongly reacted

Question: For “PFISR CAVCE APAVV IAVHS (PFISRCAVCEAPAVVIAVHS; peptide with homology to Type IV collagen) [yp08, synthetic 20-residue peptide from human type IV collagen alpha 5 chain NC1]”, which urinary protein [2] is on record?
Answer: Its urinary protein is “+2”.

Question: And the “ELISA antibody level in serum (A450 nm)” value ([3]; dilution ×8,000)?
Answer: Its value is 3.00.

Question: What about the “reaction with urine specimen” value ([1]; IgA nephropathy) of the same substance?
Answer: Its value is “strongly reacted”.

Question: What about the “reaction with urine specimen” value [1, 5] of the same substance?
Answer: Its value is “strongly reacted”.

Question: And the “reaction with urine specimen” value [1, 6]?
Answer: The value was “strongly reacted”.

Question: Which urinary protein [2] does the source give for “SCLEE FRSAP FIECH GRGTC (SCLEEFRSAPFIECHGRGTC; peptide with homology to Type IV collagen) [yp12, synthetic 20-residue peptide from human type IV collagen alpha 5 chain NC1]” here?
Answer: Its urinary protein is “+2”.

Question: And the “ELISA antibody level in serum (A450 nm)” value [4]?
Answer: The value was 3.00.

Question: What about the “ELISA antibody level in serum (A450 nm)” value ([3]; dilution 32,000 fold, 7 weeks after initial administration) of the same substance?
Answer: Its value is 3.00.

Question: What about the “reaction with urine specimen” value ([1]; IgA nephropathy) of the same substance?
Answer: Its value is “strongly reacted”.

Question: What about the “reaction with urine specimen” value [1, 5] of the same substance?
Answer: The value was “strongly reacted”.

Question: And the “reaction with urine specimen” value [1, 6]?
Answer: Its value is “strongly reacted”.

Question: Which results are given for “STMPF MFCNI NNVCN FASRN (STMPFMFCNINNVCNFASRN; peptide with homology to Type IV collagen) [yp05, synthetic 20-residue peptide from human type IV collagen alpha 5 chain NC1]”?
Answer: reaction with urine specimen ([1]; IgA nephropathy): strongly reacted; reaction with urine specimen [1, 5]: strongly reacted; reaction with urine specimen [1, 6]: strongly reacted
